# Laboratory results: patent publication US9969743B2, “Urea and amide derivatives of aminoalkylpiperazines and use thereof” (Southern Research Institute, priority 2012, dated 2018)
# Columns and labels:
# Format in all cases: in vivo
# [1] = test system: Long Evans rats; assay: Spontaneous locomotor activity; conditions: all doses tested (3.75, 7.5, 15 mg/kg), any time during the test sessions
# Procedure: (§1) In Vivo Studies. Effect on Locomotor Activity. These studies were performed using Long Evans rats using standard protocols. Locomotor activity chambers measuring 43×43×30 cm (l×w×h) were used for the locomotor activity experiments. Each chamber was equipped with eight photo-emitters positioned along the length of the chamber 6 cm above the floor, each paired directly opposite a photocell. Locomotor activity counts were registered when adjacent beams were broken consecutively. Before receiving any drug, the animals (n=96) were placed in locomotor activity chambers for habituation, for 2 hours per day for 3 consecutive days. Based on the locomotor activity score obtained during the third habituation session, animals were assigned into one of […]. […] For the 113 alone experiments, each of the four groups received one of 4 doses of 113 (0, 3.75, 7.5 or 15 mg/kg) 10 minutes prior to placement in the activity chambers. For the 113 cocaine interaction experiments, each of 4 groups were injected with one of the 4 doses of the compound (0, 3.75, 7.5 or 15 mg/kg) 10 minutes before receiving 10 mg/kg of cocaine as the second injection. […] The locomotor counts in the 113 alone and 113/cocaine experiments were analyzed using two separate mixed-design ANOVAs with 113 dose (between-groups) and 5-min bins (repeated measures) as factors. […]
# [2] = test system: Long Evans rats; assay: Cocaine self-administration under PR schedule of reinforcement
# Procedure: In Vivo Studies. Effect on Cocaine-Self administration. These studies were performed using Long Evans rats using standard protocols (Quinlan M. G. et al. Psychopharmacol. 2004, 175, 53-59; Ranaldi, R. et al. Behav. Pharmacol. 2011, 22, 347-353). Cocaine self-administration sessions were conducted in sixteen operant chambers; eight measuring 30×22×27 cm (l×w×h) and the other eight measuring 26×26×30 cm (l×w×h). Each chamber was situated inside a sound-attenuating box and was equipped with two retractable levers, a white light above each lever, and a tether. Polyethylene tubing, covered by the tether, connected the animal, through a fluid swivel, to a syringe in a syringe pump (Razel, 3.33 rpm). […] Each animal was tested with one dose of the D3 antagonist, randomly determined, at as many of the three cocaine doses as possible. After a particular test the animal's cocaine dose was changed to another one (randomly determined) and its baseline BP on the new dose was established. BP during the test session was expressed as the percentage of the average BP obtained during the last three baseline sessions. Percentage of baseline BP and final ratio (i.e. the number of lever presses required for the BP infusion) were analyzed using separate two-way analyses of variance (ANOVAs) with dose of 113 and dose of cocaine as between-groups factors. […]
# [3] = test system: Rats; assay: Cue-induced reinstatement of cocaine-seeking; conditions: ip injection of one of 3 doses 20 minutes before 1-h reinstatement session
# Procedure: In Vivo Studies. Effect on Reinstatement. Rats were trained to self-administer cocaine (1.0 mg/kg/injection) under a FR1 schedule of reinforcement in daily 3-h sessions and, after stable responding was established (as described above) the schedule was changed to FR3. After stable responding under the FR3 schedule was established, extinction training began. Stable responding was defined as follows: 12 consecutive sessions in which total rewards per session was greater than 20 and in which total rewards per session for the last three sessions was within ±10% of the mean of the three sessions. […] After extinction criteria were met each rat was tested in one 1-h reinstatement session; each rat received an ip injection of vehicle or one of 3 doses of the test compound and 20 minutes later was placed in the operant chamber. At the start of the reinstatement session the cocaine-associated cues (light on for 20 s and pump on for 4.5 s) were presented twice, once at 25 sec and again at 2 min into the session. Presses on the active lever illuminated the light and activated the pump.
# [4] = test system: Long Evans rats; assay: Food self-administration under PR schedule of reinforcement; conditions: 3.75 mg dose vs 0, t(7)=0.43, p=0.66
# Procedure: In Vivo Studies. Effect on Food-Self administration. These studies were performed using Long Evans rats using standard protocols. Training and testing took place in ventilated and sound-attenuated operant chambers measuring 30×21×18 cm. Each chamber contained two levers, one light above each of the levers, and a food trough. Each lever was positioned 2.5 cm from the rod floor and the food trough (measuring 5×5 cm) was centered between the two levers. A different set of animals (n=8) was trained to press a lever reinforced by food under a FR1 schedule of reinforcement. […] Percentage of baseline BPs for food self-administration was analyzed using a dependent measures t-test comparing the 0 and 3.75 mg doses of 113.
# [5] = test system: Long Evans rats; assay: Cocaine-induced locomotor activity; conditions: 3.75, 7.5 or 15 mg/kg 10 minutes before 10 mg/kg of cocaine; p<0.05
# Procedure: as §1
structure (smiles),measurement,setting,value
"CC(C)(C)c1nc(N2CCN(CCCCNC(=O)c3cn4ccccc4n3)CC2)cc(C(F)(F)F)n1 [Compound 113, N-(4-(4-(2-(tert-Butyl)-6-(trifluoromethyl)pyrimidin-4-yl)piperazin-1-yl)butyl)imidazo[1,2-a]pyridine-2-carboxamide]","spontaneous locomotor activity, overall",[1],none of the doses tested produced significant effects on spontaneous locomotor activity
same,"percentage of baseline BP for cocaine under PR schedule, dose relation","[2]; 3.75, 7.5 and 15 mg/kg intraperitoneally 10 minutes prior to session, cocaine 0.375, 0.75 or […]",dose-related reduction in the percentage of baseline BPs
same,percentage of baseline BPs for cocaine compared to vehicle (Tukey post hoc),"[2]; 3.75, 7.5 or 15 mg of 113, ps<0.05",significant reductions in the percentage of baseline BPs
same,cue-induced reinstatement (presses on the active lever),[3],strongly reduced in a dose-related fashion
same,percentage of baseline BP for food self-administration,[4],did not affect food self-administration
same,cocaine-induced locomotor activity,[5],significantly reduce cocaine-induced locomotor activity in a dose-related fashion
